The values that follow are results of earlier work, collected in patent US20250289807A1, “Inhibitors of ROCK2” (Graviton Bioscience BV, priority 2022, published 2025).

For series [1], the system named is mouse 3T3-L1 pre-adipocytes. The following applies: cited from earlier work.
In series [2] the test system is human adipose-derived stem cells. To be noted: cited from earlier work.

Take `CC(C)NC(=O)COc1cccc(-c2nc(Nc3ccc4[nH]ncc4c3)c3ccccc3n2)c1` [KD025]: the adipocyte differentiation result in series [1] and in series [2] was “down-regulated adipocyte differentiation” each time.
